The text below walks through data of patent US20030144346A1, “Methods and compositions for regulation of 5-alpha reductase activity” (priority 1997, published 2003).

“And” between values parts separate entries of the source, which are not always exact repeats. Equal values may be shown once. A value given as a limit tells only on which side of the number the result lay.

Test [1] concerns 5α-reductases isozyme 2 and isozyme 1. Conditions: Russell and Wilson, 1994; cited from earlier work.
The test system of test [2] is human prostate and breast tumors. As to the kind of experiment: Human prostate and breast tumors in animal models. The test is classed as in vivo, nude mice. The protocol: A compound of this invention can be used to treat breast or prostate cancer. […] By way of example, human prostate cancer PC-3 cells are grown in culture medium. About one million cells are injected into male nude mice and the growth of tumors followed. Within two weeks, the tumor grows to about 100 mm^3. Three tumor bearing mice are injected with a test compound each day.

Test [3] deals with T1, type 1 human 5α-reductase (HRED1) (Homo sapiens, UniProt P18405).
T1 sequence (P18405 1-259): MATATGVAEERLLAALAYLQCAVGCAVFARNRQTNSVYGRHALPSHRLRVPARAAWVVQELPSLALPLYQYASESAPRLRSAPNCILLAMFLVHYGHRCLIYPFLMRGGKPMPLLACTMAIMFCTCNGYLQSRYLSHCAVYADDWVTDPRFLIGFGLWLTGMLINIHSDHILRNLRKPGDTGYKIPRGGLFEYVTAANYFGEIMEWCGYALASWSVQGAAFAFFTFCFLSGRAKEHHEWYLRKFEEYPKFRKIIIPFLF
As to the kind of experiment: Cell free assay of 5α-reductase, microsomes of rat 1A cells expressing type 1 isoenzyme (HRED1).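 As to all read-outs here: microsomes from rat 1A cells expressing human type 1 5α-reductase, conversion of radiolabeled testosterone to dihydrotestosterone quantified by thin layer chromatography with radioanalytic scanning.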 In kind it is biochemical. Details: expressed in transfected cells; host or cells: rat 1A cells infected with pMV7 retrovirus; microsomes. Conditions: for HRED1 % Inhibition @ 100 μM: Table 5.

The target in test [4] is T1, type 1 human 5α-reductase (HRED1). Nature of the test: Whole cell assay of 5α-reductase, type 1 isoenzyme.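 As to all read-outs here: intact rat 1A cells engineered to express the human type 1 5α-reductase isozyme serve as the enzyme source.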 Details: expressed in transfected cells; host or cells: rat 1A cells infected with pMV7 retrovirus. Conditions: whole cell assay; for HRED1 % Inhibition @ 100 μM / IC50 / inhibition at 100 µM: Table 7; for IC50: read-out: HCRED1 IC50. In kind it is cell-based.
The target of test [5] is T2, type 2 human 5α-reductase (HRED2) (Homo sapiens, UniProt P31213).
T2 sequence (P31213 1-254): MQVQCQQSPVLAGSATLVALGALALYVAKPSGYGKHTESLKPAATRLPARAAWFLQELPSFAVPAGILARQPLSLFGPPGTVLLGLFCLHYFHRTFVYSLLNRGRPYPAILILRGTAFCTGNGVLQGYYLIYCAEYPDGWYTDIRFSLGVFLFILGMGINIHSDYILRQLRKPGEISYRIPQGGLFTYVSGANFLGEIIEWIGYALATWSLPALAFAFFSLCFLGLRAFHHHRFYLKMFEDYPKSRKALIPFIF
As to the kind of experiment: Whole cell assay of 5α-reductase, type 2 isoenzyme.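 As to all read-outs here: intact rat 1A cells genetically modified to carry human type 2 5α-reductase served as the enzyme source.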 In kind it is cell-based. The note with it: for IC50: Table 7, read-out: HCRED2 IC50. Set-up: expressed in transfected cells; host or cells: rat 1A cells infected with pMV7 retrovirus.

Test [6] in a line: Body and organ weight loss. In kind it is in vivo. Conditions: compared with ECG. The protocol:
By way of example, male Sprague-Dawley rats (body weight 180 g±10 g) are used. Compounds are intraperitoneally injected into rats in one group each day for 7 days. Rats in the control group receive 0.1 ml 30% ethanol. Body and organ weights are determined.

For test [7], the target named is T2, type 2 human 5α-reductase (HRED2). Nature of the test: Cell free assay of 5α-reductase, microsomes of rat 1A cells expressing type 2 isoenzyme (HRED2).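 As to all read-outs here: labeled testosterone and its product dihydrotestosterone measured in microsomal reaction extracts via thin layer chromatography plus radioanalytic scanning.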 The test is classed as biochemical. Set-up: expressed in transfected cells; host or cells: rat 1A cells infected with pMV7 retrovirus; microsomes. The note with it: for HRED2 % Inhibition @ 100 μM: Table 5.
Setting [8] is: cell free assay, Table 5 epigallocatechin derivatives, read-out: HRED1 IC50.
Setting [9] is: cell free assay, Table 5 epigallocatechin derivatives, read-out: HRED2 IC50.
Setting [10] is: 100 uM, cell free assay, Table 1.
Setting [11] is: cell free assay, Table 1 flavanoids, read-out: HRED1 IC50.
Setting [12] is: cell free assay, Table 1 flavanoids, read-out: HRED2 IC50.
[13] abbreviates: cell-free assay, read-out: IC50, type 1 isoenzyme.
[14] abbreviates: 100 μM, cell free assay, Table 6, read-out: HRED2 % Inhibition @ 100 μM.
Setting [15] is: cell-free assay, read-out: IC50, type 2 isoenzyme.

Turning to `CC(C)(C)NC(=O)[C@H]1CC[C@H]2[C@@H]3CC[C@H]4NC(=O)C=C[C@]4(C)[C@H]3CC[C@]12C` [Finasteride], the “affinity for isozyme 2 relative to isozyme 1” value in test [1] is recorded as 30 fold.

For `O=C(O[C@@H]1Cc2c(O)cc(O)cc2O[C@@H]1c1cc(O)c(O)c(O)c1)c1cc(O)c(O)c(O)c1` [Epigallocatechin Gallate], the “effect on size of human prostate and breast tumors” value in test [2] was “surprisingly effective in suppressing and even reducing the size”. For the same compound, the “inhibitory activity against type 1 isoenzyme, in words” value in test [3] (cell-free assay) was “high”. For the same compound, in test [4], the “inhibitory activity in the whole cell assay, type 1 isoenzyme, in words” value is “low”. In addition, the “HRED2 % Inhibition @ 100 μM” value in test [5] (Table 7, listed as EGCG) was 5% and 0%. Also, the “reduction of body weight” value in test [6] is listed as “significantly more effective”.

On to `O=C(OC1Cc2c(O)cc(O)cc2OC1c1cc(O)c(O)c(O)c1)c1ccncc1` (centres unmarked) [HZIV 107], for which the “HRED1 % Inhibition @ 100 μM” value was 52% in test [3] (100 μM, cell free assay) and 23% in test [4]. The half-inhibitory concentration (IC50) (usually the concentration that inhibits the measured activity by half) in test [3] (setting [8]) is 98 µM; in test [7] (setting [9]), above 100 µM; in test [4], above 100 µM; in test [5] it was above 100 µM. The “HRED2 % Inhibition @ 100 μM” value is reported as 39% in test [7] (100 μM, cell free assay) and 2% in test [5] (Table 7).

For `COc1ccc(-c2coc3cc(O)cc(O)c3c2=O)cc1` [Biochanin a], the “HRED1 % Inhibition @ 100 uM” value in test [3] (setting [10]) is on record as 50%. For the same compound, the 50% inhibitory concentration (IC50) in test [3] (setting [11]) was above 100 µM; in test [7] (setting [12]), 17 µM; in test [4], 64 µM; in test [5], 5 µM. In addition, the “HRED2 % Inhibition @ 100 uM” value in test [7] (setting [10]) was 74%. In test [7] (cell-free assay), the “inhibitory activity against type 2 isoenzyme, in words” value is “effective inhibitors”. Also, the “HRED1 % Inhibition @ 100 μM” value in test [4] is reported as 64%. Besides, in test [5], the “inhibitory activity in the whole cell assay, type 2 isoenzyme, in words” value is recorded as “significant inhibitory activity”. Besides, in test [5] (Table 7), the “HRED2 % Inhibition @ 100 μM” value came out at 93%.

With `CCCCCC(=O)OC1Cc2c(O)cc(O)cc2OC1c1cc(O)c(O)c(O)c1` (centres unmarked) [HZIV 169], the “HRED1 % Inhibition @ 100 μM” value in test [3] (100 μM, cell free assay) came out at 90%; in test [4], 10%. Further, the IC50 in test [3] (setting [8]) is 47 µM; in test [7] (setting [9]), above 100 µM; in test [4] it was above 100 µM; in test [5], above 100 µM. The “HRED2 % Inhibition @ 100 μM” value in test [7] (100 μM, cell free assay) was 39%; in test [5] (Table 7) it was 0%.

Turning to `CCCCC=CCCCCCCCC(=O)OC1Cc2c(O)cc(O)cc2OC1c1cc(O)c(O)c(O)c1` (centres unmarked) [HZIV 160], the “HRED1 % Inhibition @ 100 μM” value was 99% in test [3] (100 μM, cell free assay) and 99% in test [4]. For the same compound, the IC50 in test [3] (setting [8]) was 29 µM; in test [7] (setting [9]) it was 76 µM; in test [4] it was 7 µM; in test [5] it was 8 µM. In addition, the “inhibitory activity against type 1 isoenzyme, in words” value in test [3] (cell-free assay) is given as “effective”. In addition, the “HRED2 % Inhibition @ 100 μM” value in test [7] (100 μM, cell free assay) is 96%; in test [5] (Table 7) it was 98%. In addition, the “inhibitory activity in the whole cell assay, type 1 isoenzyme, in words” value in test [4] was “effective”.

For `CCCCCCCCOC(=O)c1cc(O)c(O)c(O)c1` [Octyl Gallate], the inhibition (as a rule, the change of the read-out against control, counted positive when it falls) at 100 µM stood at 99% in test [3] (100 uM, cell free assay, Table 2, read-out: HRED1 % Inhibition @ 100 uM); 90% in test [7] (100 uM, cell free assay, Table 2, read-out: HRED2 % Inhibition @ 100 uM); 99% in test [4]; 94% in test [5] (Table 7). Moreover, the IC50 was 27 µM in test [3] (cell free assay, Table 2 catechols, read-out: HRED1 IC50); 58 µM in test [7] (cell free assay, Table 2 catechols, read-out: HRED2 IC50); 7 µM in test [4]; 18 µM in test [5]. Further, the “inhibitory activity in the whole cell assay, type 1 isoenzyme, in words” value in test [4] is listed as “active”.

On to `O=C(O[C@@H]1Cc2c(O)cc(O)cc2O[C@@H]1c1ccc(O)c(O)c1)c1cc(O)c(O)c(O)c1` [Epicatechin Gallate], for which the IC50 in test [3] (setting [11]) was 11 µM; in test [7] (setting [12]), 60 µM; in test [4] it was above 100 µM; in test [5], above 100 µM. The inhibition at 100 µM amounted to 100% in test [3] (read-out: HRED1 % Inhibition @ 100 uM), 83% in test [7] (read-out: HRED2 % Inhibition @ 100 uM), 0% in test [4] and 0% in test [5] (Table 7).

Consider `CCCCC/C=C\C/C=C\C/C=C\CCCCC(=O)O` [Gamma-Linolenic Acid, Gamma-Linolenic Acid C18:3 CIS 6.9,12], for which the IC50 was 5 µM in test [3] (cell free assay, Table 6 fatty acids, read-out: HRED1 IC50); 3 µM in test [3] (setting [13]); 11 µM in test [7] (cell free assay, Table 6 fatty acids, read-out: HRED2 IC50); 3 µM in test [7] (setting [15]); 22 µM in test [4]; 20 µM in test [5]. In addition, the inhibition at 100 µM in test [3] (read-out: HRED1 % Inhibition @ 100 μM) came out at 99%; in test [7] (setting [14]), 89%; in test [4], 91%; in test [5] (Table 7), 86%.

Regarding `CCCCCC#CCC#CCC#CCC#CCCCC(=O)O` [5,8,11,14-Eocpsatetraynoic Acid, 5,8,11,14-eicosatetraynoic acid], the inhibition at 100 µM in test [3] (100 μM, cell free assay, Table 6, read-out: HRED1 % Inhibition @ 100 μM) amounted to 97%; in test [7] (setting [14]), 81%; in test [4] it was 67%; in test [5] (Table 7), 86%. Besides, the IC50 in test [3] (setting [13]) was found to be 15 µM; in test [7] (setting [15]) it was 3 µM; in test [4], 22 µM; in test [5] it was 2 µM.
